# From US7355055B2, “Compounds for treatment of lipase-mediated diseases” (Reliance Life Sciences Pvt. Ltd., priority 2005, dated 2008)
# Counter-ions that a name gives are not always drawn.
# Assays:
# Pancreatic Lipase = target: T1, Pancreatic Lipase (Sus scrofa, UniProt P00591); experiment: Pancreatic lipase inhibition assay (p-nitro phenol palmitate substrate, 96-well); assay type: biochemical; settings: for IC50: dose range 6.25 μM-200 μM, interpolated by linear regression; for inhibition at 100 µM / inhibition at 200 µM: pancreatic lipase, 37° C., OD 405 nm; for inhibition at 100 µM: compound 100 μM; for inhibition at 200 µM: compound 200 μM
# T1 construct: purchased Sigma L-3126
# T1 sequence (P00591 1-450): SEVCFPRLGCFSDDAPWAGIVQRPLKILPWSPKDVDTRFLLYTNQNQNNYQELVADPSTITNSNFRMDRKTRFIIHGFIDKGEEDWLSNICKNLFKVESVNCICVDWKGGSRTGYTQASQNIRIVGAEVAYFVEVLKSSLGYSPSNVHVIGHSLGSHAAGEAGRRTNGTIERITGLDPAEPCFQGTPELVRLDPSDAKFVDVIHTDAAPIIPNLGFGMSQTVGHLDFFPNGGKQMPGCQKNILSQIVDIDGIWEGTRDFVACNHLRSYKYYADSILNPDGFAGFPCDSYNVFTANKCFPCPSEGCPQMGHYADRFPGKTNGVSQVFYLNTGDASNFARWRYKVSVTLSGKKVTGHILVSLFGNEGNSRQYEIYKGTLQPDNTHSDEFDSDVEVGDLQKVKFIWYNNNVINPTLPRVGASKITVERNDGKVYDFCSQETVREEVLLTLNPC
# Description: (§1) Preparation of test samples: Structures #2-#19 were dissolved in 1 mL DMSO to obtain a 10 mM stock solution, and were vortexed to dissolution and stored at 4° C. The various concentration of working samples were prepared in 0.2 M phosphate buffer, pH-8.0. This sample was used as test sample for all further assays.
# Lipase assay: Lipase assay was performed by method described by Winkler and Stuckmann, 1979, with modification. (Winkler, U. K. & Stuckmann, M. Glycogen, hyaluronate, and some other polysaccharides greatly enhance the formation of exolipase by Serratia marcescens. J. Bacteriol. 138: 663-670 (1979)) Assay was designed, using a 96-well format. The substrate used in this assay was p-nitro phenol palmitate (Sigma, Cat No-N-2752). 4.5 mg of p-nitro phenol palmitate was dissolved in 200 μl of N,N-dimethyl formamide (Sigma, Cat No, D-4551) and volume made up to 10 ml with 0.1 M pH 8.0 phosphate buffer. Pancreatic Lipase (Sigma, Cat No. L-3126) sample was prepared by dissolving the enzyme in 0.1M phosphate buffer at a concentration of 5 mg/ml. The reaction mixture consisted of 150 μl substrate solution; 40 μl phosphate buffer (pH 8.0, 0.2 M) and 10 μl lipase solution. The reaction mixture was incubated at 37° C. and optical density was measured at 405 nm after incubation. Enzyme activity was presented in the form of international unit (IU).
# Lipase activity: One enzyme unit of lipase is defined as that quantity releasing 1 nm of free phenol from the substrate (p-nitro phenol palmitate) per min per ml under the standard assay condition (Winkler and Stuckmann, 1979; Yadav R P, Saxena R K, Gupta R. Davidson W S., Purification and characterization of a region-specific lipase from Aspergillus terreus. Biotechnol. Appl. Biochem. (1998) 28, (243-249)). It is derived from standard graph of p-nitro phenol (Sigma, 104-8).
# (§2) Lipase inhibition assay: Enzyme inhibition assay was performed in a dose dependent manner. The concentration of the synthetic analogs checked were 100 μM & 200 μM. The assay was similar to assay described above except 40 μl of test sample was used instead of phosphate buffer in control. Optical density was measured at 0 hr and following incubation at 37° C.
# Enzyme Inhibition: Enzyme inhibition was presented in the term of relative activity and percentage inhibition simply on the basis of change in international unit (IU).
# as §1, with “Synthetic analogues” for “Structures #2-#19”, “ml” for “mL”, “solution. The samples” for “solution, and”, “O.2” for “0.2”
# as §2, with “6.25 μM-200” for “100 μM & 200”, “C. The enzyme activity was measured in terms of international unit (IU).” for “C.”
# Lipase activity: One enzyme unit of lipase is defined as that quantity releasing 1 nm of free phenol from the substrate (p-nitro phenol palmitate)/min per ml under standard assay conditions. It is derived from standard graph of p-nitro phenol (Sigma, 104-8)
# Percent Inhibition: Enzyme inhibition was presented in the term of % inhibition simply on the basis of change in international unit (IU).
# The value of IC50 was derived from linear regression. The value derived is based on interpolated data.
Structure (SMILES),IC50 (Pancreatic Lipase) [µM],inhibition at 100 µM (Pancreatic Lipase) [%],inhibition at 200 µM (Pancreatic Lipase) [%],melting point [°C]
"CCCCCCCCCCCC1=C(OC(=O)c2cccc(F)c2)C(=O)C=C(OC(=O)c2cccc(F)c2)C1=O [Structure #2, 2,5-bis-(3-fluorophenylcarbonyloxy)-3-undecyl-1,4-benzoquinone]",< 6.25,99.2,97.9,73.2 to 75.6
"CCCCCCCCCCCC1=C(OC(=O)c2cccc([N+](=O)[O-])c2)C(=O)C=C(OC(=O)c2cccc([N+](=O)[O-])c2)C1=O [Structure #11, 2,5-bis-(3-nitrophenylcarbonyloxy)-3-undecyl-1,4-benzoquinone]",27,97.4,98,112.6 to 114.4
"CCCCCCCCCCCC1=C(OC(=O)c2cccc(C)c2)C(=O)C=C(OC(=O)c2cccc(C)c2)C1=O (as salt: Na) [Structure #13, 2,5-bis-(3-methylphenylcarbonyloxy)-3-undecyl-1,4-benzoquinone]",,,,80.4 to 81.7
"CCCCCCCCCCCC1=C(OC(=O)c2ccccc2I)C(=O)C=C(OC(=O)c2ccccc2I)C1=O (as salt: Na) [Structure #19, 2,5-bis-(2-iodophenylcarbonyloxy)-3-undecyl-1,4-benzoquinone]",,,,64.2 to 67.6
"CCCCCCCCCCCC1=C(OC(=O)c2ccccc2F)C(=O)C=C(OC(=O)c2ccccc2F)C1=O [Structure #4, 2,5-bis-(2-fluorophenylcarbonyloxy)-3-undecyl-1,4-benzoquinone]",7.78,99.6,100,66.2 to 68
